The text below walks through data of patent publication US8927700B2, “Catalytic domains from lysyl oxidase and LOXL2” (Gilead Biologics, Inc., priority 2009, dated 2015).

For the data set, the target named is T1, catalytic domain of human LOXL2 (Homo sapiens, UniProt Q9Y4K0).
T1 construct: made in house; host or cells: 293F cells (HEK293 subclone), transient transfection; purified from culture supernatant on Ni-Sepharose
As to the kind of experiment: Amplex Red coupled peroxide assay of lysyl oxidase enzymatic activity (deamination of 1,5-diaminopentane). The format is biochemical. The following applies: 1,5-diaminopentane substrate, 37° C., FIG. 5. The method, then:
A polypeptide containing the catalytic domain of human LOXL2 was produced as described in Example 12 above. Enzymatic activity was assessed using a biochemical assay that couples the production of peroxide (liberated by LOXL2 after deamination of 1,5-diaminopentane) to the HRP-catalyzed conversion of Amplex® red to a fluorescent product (resorufin). Palamakumbura et al. (2002) Anal. Biochem. 300:245-251. Reaction plates were obtained from Corning. Amplex® Red reagent was from Invitrogen (Carlsbad, Calif.). Horseradish peroxidase (HRP), 1,5-diaminopentane, and antifoam were from Sigma (St. Louis, Mo.). All other reagents were of the highest quality available.
Enzyme mixture was assembled by adding 10 uL of pooled peak fractions (see Example 12) to 40 uL assay solution (62.5 mM sodium borate pH 8.0, 5 units/mL HRP, 10 ppm antifoam). Substrate solution contained 50 mM sodium borate, 100 uM Amplex® red reagent, 20 mM 1,5-diaminopentane, 10 ppm antifoam. The reaction was started by mixing 50 ul of enzyme mixture with 50 ul of substrate solution. […] Reaction mixtures were incubated, at 37° C., in a Molecular Devices M5 plate reader configured to measure fluorescence (ex=544 nm, em=590 nm) in kinetics mode for 1 hour. Data were recorded as the slope of the fluorescence response to time.

T1 sequence (Q9Y4K0 with tags, fused parts or gaps): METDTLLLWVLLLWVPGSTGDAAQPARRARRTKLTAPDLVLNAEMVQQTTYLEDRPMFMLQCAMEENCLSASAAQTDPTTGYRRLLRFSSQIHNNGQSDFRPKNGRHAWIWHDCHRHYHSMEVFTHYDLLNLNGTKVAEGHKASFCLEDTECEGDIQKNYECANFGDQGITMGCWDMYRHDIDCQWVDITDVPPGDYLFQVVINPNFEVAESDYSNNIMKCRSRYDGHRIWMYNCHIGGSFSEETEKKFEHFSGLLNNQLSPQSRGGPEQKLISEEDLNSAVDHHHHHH

Take `N#CCCN` [βAPN, beta-aminoproprionitrile]: the “inhibition of the enzymatic activity of the human LOXL2-derived polypeptide (time course of resorufin production, RFU)” value (2 mM βAPN in reaction, kinetics mode for 1 hour) is “inhibited”.

On to “human LOXL2-derived polypeptide: polypeptide containing the catalytic domain of human LOXL2 with myc epitope tag and His6 purification tag, produced in 293F cells”, for which the “enzymatic activity (time course of resorufin production, relative fluorescent units)” value (pooled peak fractions of purified polypeptide, 1 hour) is “measurable enzymatic activity”.
